Where a name gives a salt, the structure may show the parent alone. Read-outs that look alike come from different tables or passages of the source.
Columns and labels:
PA63-channel [1] = biological target: T1, PA63-channel (Bacillus anthracis, UniProt P13423); experiment: biochemical; assay type: binding
J774A.1 macrophages = assay type: cell-based; conditions: for amount of lysed cells (LF-induced cell lysis after acidic pulse): pH 5
J774A.1 cells [2] = conditions: 100 µM
J774A.1 cells [3] = assay type: cell-based
PA63-channel [4] = biological target: T1, PA63-channel; experiment: biochemical; assay type: binding; remark: listed apart in the source
PA63-channel [5] = biological target: T1, PA63-channel; conditions: cited from earlier work
PA63-channel [6] = biological target: T1, PA63-channel; conditions: cited from earlier work; remark: listed apart in the source
[7] = read-out: Half saturation constant KS, pH 6

T1 sequence (P13423 197-764 limits assumed): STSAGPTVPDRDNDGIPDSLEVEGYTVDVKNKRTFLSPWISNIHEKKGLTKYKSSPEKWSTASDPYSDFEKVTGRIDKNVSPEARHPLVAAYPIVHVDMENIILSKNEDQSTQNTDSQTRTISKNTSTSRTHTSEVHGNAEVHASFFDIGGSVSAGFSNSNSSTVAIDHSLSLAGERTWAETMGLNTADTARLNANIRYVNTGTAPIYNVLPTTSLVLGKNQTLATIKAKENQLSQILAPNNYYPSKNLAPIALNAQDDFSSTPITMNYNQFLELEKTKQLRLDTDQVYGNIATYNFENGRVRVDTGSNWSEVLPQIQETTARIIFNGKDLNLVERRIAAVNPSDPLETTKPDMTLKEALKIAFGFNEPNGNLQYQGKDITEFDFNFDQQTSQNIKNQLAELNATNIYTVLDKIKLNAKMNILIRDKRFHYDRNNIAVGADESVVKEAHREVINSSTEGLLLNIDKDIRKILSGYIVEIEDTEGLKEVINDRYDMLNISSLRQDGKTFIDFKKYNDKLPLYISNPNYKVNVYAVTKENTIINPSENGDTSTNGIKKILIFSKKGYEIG

O=[N+]([O-])c1cccc(-n2c(-c3ccc(Br)cc3)c[n+]3ccccc23)c1 [HA1495, 1-(3-nitrophenyl)-2-(4-bromophenyl)imidazo[1,2-a]pyridinium bromide]
Kd (PA63-channel [1]; Half saturation constant KS): 3.6 µM
Stability constant K (PA63-channel [1]; pH 6): 274,000 L/mol
amount of lysed cells (LF-induced cell lysis after acidic pulse) (J774A.1 macrophages): significantly reduced
cell viability (MTS assay) (J774A.1 cells [2]; 24 h): no effect on cell viability
protection from lysis by PA63/LF in the medium (J774A.1 cells [3]): moderate inhibitory effect

Clc1ccc(-n2nnc3ccc4ccccc4[n+]32)c(Cl)c1 [HA 1221]
Kd (PA63-channel [1]; Half saturation constant KS): 170 µM
Stability constant K (PA63-channel [1]; pH 6): 6,000 L/mol

Clc1ccc(OCn2cn[n+]3ccccc23)c(Cl)c1 [HA 766]
Kd (PA63-channel [1]; Half saturation constant KS): 36 µM
Stability constant K (PA63-channel [1]; pH 6): 29,400 L/mol

Brc1ccc(-c2csc3cccc[n+]23)cc1 [HA 112]
Kd (PA63-channel [1]; Half saturation constant KS): 57 µM
Stability constant K (PA63-channel [1]; pH 6): 18,500 L/mol

O=[N+]([O-])c1ccc(-c2c[n+]3ccccc3n2-c2ccc(O)cc2)cc1 [HA1383, 1-(4-hydroxyphenyl)-2-(4-nitrophenyl)imidazo[1,2-a]pyridinium tetrafluoroborate]
K (Lineweaver-Burke plot) (PA63-channel [1]): 740,000 1/M
K* (PA63-channel [1]): 749,000 L/mol
Kd (PA63-channel [1]; Half saturation constant KS): 1.3 µM
Kd (PA63-channel [1]; Half saturation constant Ks): 1.34 µM
amount of lysed cells (LF-induced cell lysis after acidic pulse) (J774A.1 macrophages): significantly reduced
melting point: 171 to 173 °C
Kd (PA63-channel [4]): 1800 nM
off-rate k-1 (PA63-channel [4]): 352 s⁻¹
K (stability constant from ratio k1/k-1) (PA63-channel [4]; pH 6): 560,000 L/mol
k1 (on-rate constant) (PA63-channel [4]; pH 6): 2.1×10^8 L/(molxs)
k-1 (off-rate constant) (PA63-channel [4]; pH 6): 370 s⁻¹
cell viability (MTS assay) (J774A.1 cells [2]; 7 h): no effect on cell viability
cell viability (MTS assay) (J774A.1 cells [2]; 24 h): slightly decreased
protection from lysis by PA63/LF in the medium (J774A.1 cells [3]): moderate inhibitory effect

O=c1c2ccccc2[n+]2ccccc2n1Cc1cccc2ccccc12 [HA 1882]
Kd (PA63-channel [1]; Half saturation constant KS): 130 µM
Stability constant K (PA63-channel [1]; pH 6): 7,900 L/mol

COc1ccc(-n2c(=S)n(-c3ccc([N+](=O)[O-])cc3)c3cccc[n+]32)cc1 [HA 1885]
Kd (PA63-channel [1]; Half saturation constant KS): 110 µM
Stability constant K (PA63-channel [1]; pH 6): 10,800 L/mol

Clc1cc(Cl)c(-n2nnc3cccc[n+]32)c(Cl)c1 [HA 728]
Kd (PA63-channel [1]; Half saturation constant KS): 85 µM
Stability constant K (PA63-channel [1]; pH 6): 11,800 L/mol

Clc1ccc(OCn2cc[n+]3ccccc23)c(Cl)c1 [HA 486]
K* (PA63-channel [1]): 38,000 L/mol
Kd (PA63-channel [1]; Half saturation constant KS): 27 µM
Stability constant K (PA63-channel [1]; pH 6): 38,000 L/mol
Kd (PA63-channel [4]): 32000 nM
off-rate k-1 (PA63-channel [4]): 3,500 1/s
on-rate constant k1 (PA63-channel [4]): 1.2e+08 M⁻¹ s⁻¹
K (stability constant from ratio k1/k-1) (PA63-channel [4]; pH 6): 34,000 L/mol
k1 (on-rate constant) (PA63-channel [4]; pH 6): 1.2×10^8 L/(molxs)
k-1 (off-rate constant) (PA63-channel [4]; pH 6): 3,500 1/s

1-(4-chlorophenyl)-2-(4-bromophenyl)imidazo[1,2-a]pyridinium tetrafluoroborate [HA1568]
K* (PA63-channel [1]): 478,000 L/mol
Stability constant K (PA63-channel [1]; pH 6): 478,000 L/mol
Kd (PA63-channel [1]; pH 6, read-out: Half saturation constant KS): 2.7 µM
viability of J774A.1 cells by MTS-assay after acidic shift with PA63/LF (J774A.1 macrophages): protective effect
amount of lysed cells (LF-induced cell lysis after acidic pulse) (J774A.1 macrophages): significantly reduced
off-rate k-1 (PA63-channel [4]): 260 s⁻¹
on-rate constant k1 (PA63-channel [4]): 1.3e+08 M⁻¹ s⁻¹
K (stability constant from ratio k1/k-1) (PA63-channel [4]; pH 6): 511,000 L/mol
k1 (on-rate constant) (PA63-channel [4]; pH 6): 1.3×10^8 L/(molxs)
k-1 (off-rate constant) (PA63-channel [4]; pH 6): 260 s⁻¹
Kd (PA63-channel [4]; pH 6, read-out: KS): 2000 nM
cell viability (MTS assay) (J774A.1 cells [2]; 24 h): no effect on cell viability
lethal toxin-treated cells that survived in the presence of the substance (J774A.1 cells [3]): about 80%
protection from lysis by PA63/LF in the medium (J774A.1 cells [3]): protected

COc1ccc([N+](=O)[O-])cc1-n1nnc2cccc[n+]21 [HA 1212]
Stability constant K (PA63-channel [1]; pH 6): 7,000 L/mol
Kd (PA63-channel [1]; [7]): 150 µM

CCN(CC)CCCC(C)Nc1ccnc2cc(Cl)ccc12 (stereo not shown) [Chloroquine]
K* (PA63-channel [5]): 676,000 L/mol
Stability constant K (PA63-channel [5]; pH 6): 676,000 L/mol
Kd (PA63-channel [5]; [7]): 1500 nM
Kd (PA63-channel [5]; read-out: Half saturation constant Ks): 1430 nM
K (stability constant from ratio k1/k-1) (PA63-channel [6]): 1,030,000 L/mol
k1 (on-rate constant) (PA63-channel [6]): 3.6×10^8 L/(molxs)
k-1 (off-rate constant) (PA63-channel [6]): 350 s⁻¹
Kd (PA63-channel [6]; read-out: KS): 970 nM

O=[N+]([O-])c1cccc(-n2c(-c3ccc(Br)cc3)c[n+]3ccccc23)c1 (as salt: bromide) [HA1495, 1-(3-nitrophenyl)-2-(4-bromophenyl)imidazo[1,2-a]pyridinium bromide]
melting point: 176 to 177 °C

O=c1[nH]c2cccc[n+]2c2ccccc12 [HA 47]
Stability constant K (PA63-channel [1]; pH 6): 500 L/mol
Kd (PA63-channel [1]; [7]): 1990 µM

CCOC(=O)c1ccc(-n2c(-c3ccc(Br)cc3)c[n+]3cccc(O)c23)cc1 [HA 1504]
Kd (PA63-channel [1]; Half saturation constant KS): 12 µM
Stability constant K (PA63-channel [1]; pH 6): 82,900 L/mol

Cn1c(COc2ccc(Cl)cc2)n[n+]2ccccc12 [HA 1196]
Kd (PA63-channel [1]; Half saturation constant KS): 260 µM
Stability constant K (PA63-channel [1]; pH 6): 3,800 L/mol

O=C(C[n+]1ccccc1Cl)c1ccc([N+](=O)[O-])cc1 [HA 1371]
Kd (PA63-channel [1]; Half saturation constant KS): 310 µM
Stability constant K (PA63-channel [1]; pH 6): 3,200 L/mol

Reference: article PMC3688708 (PLoS ONE, 2013)
